From publication PMC4821856, “Novel Anti-Campylobacter Compounds Identified Using High Throughput Screening of a Pre-selected Enriched Small Molecules Library” (Frontiers in Microbiology, 2016)

System: C. jejuni 81-176 in Caco-2 cells
Assay: Intracellular survival / in vitro clearance of C. jejuni in infected Caco-2 cells
Format: cell-based, Campylobacter jejuni
Details: for minimal effective concentration: Campylobacter jejuni, C. jejuni 81–176 infected Caco-2 cells, compounds at 200, 100, 50, 25 μM for 24 h, read-out: In vitro Concentration (in vitro clearance ability); for Intracellular Campylobacter load (below detection limit): 50 μM, 24 h
Protocol: To test the effect of selected compounds on C. jejuni in vitro clearance, Caco-2 cells were infected with C. jejuni 81-176 strain and a 96 well intracellular survival assay was performed as described previously (Malde et al., [2014]; Pina-Mimbela et al., [2015]). Briefly, a mid-log phase C. jejuni 81–176 culture was pelleted by centrifuging at 9500 × g for 10 min and washed three times with Dulbecco Phosphate Buffer Saline (DPBS, Gibco) containing 1% (v/v) FBS and adjusted to the desired OD600. Approximately 1.4 × 10^5 Caco-2 cells/well were seeded in 100 μL of media containing varying concentration of compounds into each well of a 96 well plate and subsequently infected with C. jejuni at multiplicity of infection (MOI) 100 in duplicate wells. To determine clearance, Caco-2 cells were incubated with bacteria for 3 h and treated with gentamicin (150 μg/mL) and incubated for additional 2 h. Cells were washed three times with DPBS with no calcium or magnesium and incubated with 1 μL of diluted compounds (200, 100, 50, and 25 μM) for 24 h. Infected cells were washed twice with MEM, lysed with 0.1% (v/v) Triton-X 100. Subsequently, 100 μL of an aliquot from each well was 10-fold serially diluted in MEM and plated on MH agar in duplicate to determine CFUs. The appropriate controls included; (i) infected Caco-2 cell treated with kanamycin or chloramphenicol, (ii) infected Caco-2 cells treated with 1 μL of 100% Trition-X, (iii) infected Caco-2 treated with 1 μL of 100% DMSO. Two independent experiments were carried with duplicate treatments in each experiment and the average CFU value was used to plot the graph.
The in vitro clearance ability and cytotoxicity of compounds were analyzed using one-way analysis of variance with mean separation by a least significant difference test at 5% level of significance in GraphPad Prism version 6 software.

SMILES	minimal effective concentration [µM]	Intracellular Campylobacter clearing ability (25 μM (eight-fold dilution))	Intracellular Campylobacter load (below detection limit) [bacteria/mL]	Intracellular C. jejuni clearance (in vitro effect) (infected Caco-2 cells, overall)
O=S(=O)(Nc1cccc(C(F)(F)F)c1)c1ccc(Br)cc1 [Comp 1]	200	–	–	–
Clc1ccc(N2CCN(Cc3ccsc3)CC2)cc1 [Comp 4]	> 200	–	–	–
Cc1ccc(N2CCN(C/C=C/c3ccccc3)CC2)cc1 [Comp 5]	> 200	–	–	–
O=c1c(Cl)c(Cl)cnn1-c1ccccc1Cl [Comp 7]	25	complete intracellular Campylobacter clearing ability	≤ 10	–
Cc1c(C(C)NCc2cccc(OC3CCCC3)c2)cnn1-c1ccccc1 (centres unmarked) [Comp 10]	50	–	≤ 10	–
COc1ccc(CNCc2ccc(Cl)s2)cc1OCC(O)CN1CCCC1 (centres unmarked) [Comp 12]	100	–	–	–
CN(Cc1cccc2cnccc12)CC1CCCN(CCc2ccc(F)cc2)C1 (centres unmarked) [Comp 13]	> 200	–	–	lacked in vitro effect
CN(CC(O)COc1ccccc1CNC1(c2ccccc2)CC1)C1CCCCC1 (centres unmarked) [Comp 17]	> 200	–	–	–
CN(Cc1ccccc1)CC1CCCN(CCc2ccc(F)cc2)C1 (centres unmarked) [Comp 18]	100	–	–	–
CC(=O)Nc1ccc(CN(C)CC2CCCN(CCc3cccc(C(F)(F)F)c3)C2)cc1 (centres unmarked) [Comp 22]	100	–	–	–
